Experiment: Binding constants (pK) of L-p-BPA carbohydrate/polyol complexes by 1H-NMR integration of aromatic protons
Format: physicochemical
Details: 1H-NMR in D2O buffered to physiological pH (7.4); free L-p-BPA vs complex aromatic protons; three concentrations
From the text: For fructose and sorbose, or when a large excess of another carbohydrate or polyol is used, the p-BPA remains in solution at a pH of 7.4, and approximately 90% of the p-BPA is present as its sodium carboxylate, with the remainder as its free acid. A large excess of carbohydrate or polyol is preferred when pK is small; however, for complexes with a pK>about 3 a large excess in not need. The ratio of free p-BPA to p-BPA:carbohydrate complex can be determined by integration of the aromatic protons resonances (p-BPA, 7.73 and 7.33 ppm; p-BPA-carbohydrate complex, 7.5 and 7.2 ppm) in the 1H-NMR spectrum using D2O buffered to physiological pH as the solvent. For example, L-p-boronophenylalanine fructose complex has a pK of 3.2 while the meso-erythitol complex has a pK of 1.0, the threitol complex has a pK of 1.3, the adonitol complex has a pK of 1.7, the arabitol complex has a pK of 2.3, the rhamnitol complex has a pK of 2.3, the xylitol complex has a pK of 2.5, the talitol complex has pK of 2.4, the dulcitol complex has a pK of 2.7, the mannitol complex has a pK of 2.7, the 1-aminodulcitol complex has a pK of 2.9, the sorbitol complex has a pK of 3.2, the 1-aminosorbitol complex has a pK of 3.4, the isomaltitol complex has a pK of 3.4, the cellobiitol complex has a pK of 3.5, the lactitol complex has a pK of 3.7, the maltitol complex has a pK of 3.9, the volemitol complex has a pK of 2.9, the perseitol complex has a pK of 3.1, the glucoheptitol complex has a pK of 3.9, and the alpha,alpha-glucooctitol complex has a pK of 4.1.
L-p-Boronophenylalanine-polyol or -aminopolyol complexes are prepared by combining 0.5 mM of alpha-deuterated or alpha-hydrogenated L-p-BPA with between 1.00 and 1.05 equivalents of complexing agent (with the exception of poorly complexing polyols and carbohydrates, in which up to 4.3 equivalents of polyol or carbohydrates are used) in 2 mL of water. One equivalent of NaOH (1 mL of 0.5 M) is then added and the slurry gently warmed if needed in order to dissolve all solids. The pH is then monitored and reduced to between 7.5 and 7.3 by the addition of Dowex50WX4-50 ion exchange resin. The clear solution is then passed through a 0.2 μm syringe filter and then freeze-dried to constant weight. ^1H and ^13C NMR spectra are recorded on a GE 300 MHz FT-NMR spectrometer with D2O buffered at 7.4 [Bates, R G, Bower, V E. 1956. Alkaline solutions for pH control. Anal. Chem. 28:1322-1324] as the solvent. The binding constants are calculated at three different concentrations by integration of the free L-p-BPA aromatic protons (7.73 and 7.33 ppm) compared with those of the L-p-BPA complexes (7.5 and 7.2 ppm). Spectra of the 1:1 complexes are reported.

Molecule | pK of the p-BPA:carbohydrate/polyol complex (binding constant)
L-p-boronophenylalanine fructose complex [reference compound] | 3.2
L-p-boronophenylalanine-aminodulcitol complex [1-aminodulcitol complex] | 2.9
L-p-boronophenylalanine-aminosorbitol complex [1-aminosorbitol complex] | 3.4
L-p-boronophenylalanine-cellobiitol complex | 3.5
L-p-boronophenylalanine-dulcitol complex | 2.7
L-p-boronophenylalanine-isomaltitol complex | 3.4
L-p-boronophenylalanine-lactitol complex | 3.7
L-p-boronophenylalanine-maltitol complex | 3.9
L-p-boronophenylalanine-mannitol complex | 2.7
L-p-boronophenylalanine-persietol complex [perseitol complex] | 3.1
L-p-boronophenylalanine-rhamnitol complex | 2.3
L-p-boronophenylalanine-sorbitol complex | 3.2
L-p-boronophenylalanine-volemitol complex | 2.9
L-p-boronophenylalanine-xylitol complex | 2.5
L-p-boronophenylalanine-α,α-glucooctitol complex [alpha,alpha-glucooctitol complex] | 4.1
L-p-boronophenylalanine-α-glucoheptitol complex | 3.9

Experiment: not given
Details: physiological pH; cited from earlier work

Molecule | water solubility
N[C@@H](Cc1ccc(B(O)O)cc1)C(=O)O [BPA, para-boronophenylalanine] | poor water solubility

Source: patent US20070104648A1, “Compositions, methods of preparing amino acids, and nuclear magnetic resonance spectroscopy” (Glyconix Corporation, priority 2005, published 2007)
